Laboratory results taken from article PMC6736837, “^18F-labelled triazolyl-linked argininamides targeting the neuropeptide Y Y1R for PET imaging of mammary carcinoma” (Scientific Reports, 2019).
“Also recorded” adds a separate entry of the source.

How the values were obtained:
[1] = Radioactive metabolites of Y1R radioligands in mouse blood; type: in vivo; details: for stability in the blood in vivo (in words): mouse blood samples taken early after radiotracer injection; for intact radioligand in blood samples: 5 min p.i.
Protocol: Nude mice were anesthetised with isoflurane and injected with the respective radiotracer (3–25 MBq) into the tail vein. After 5 min, animals were sacrificed by cervical dislocation and approx. 100 µL blood were collected from the abdomen and transferred into Li-heparinised Microvettes® (100 LH, Sarstedt). The same volume of aqueous urea (0.8 g/mL) was added and the Microvette® was centrifuged (2000 × g, 5 min). The supernatant was transferred to a 1.5 mL reaction vial, mixed with the same volume of 10% aqueous TFA and centrifuged (20000 × g, 5 min). This step was repeated once. A sample of the resulting supernatant (100 µL) was analysed by radio-HPLC using two methods (Chromolith RP-18e, 100 × 4.6 mm, 4 mL/min, 0–1 min 25% CH3CN (0.1%TFA) in water (0.1%TFA), 1–6 min 25–60%, 6–7 min 60–100%, 7–8 min 100%; Kromasil 100 C8 5 µm, 250 × 4.6 mm, 1.5 mL/min, 1–25 min 20–53.3% CH3CN (0.1% TFA) in water (0.1% TFA), 25–27 min 53.3–80%, 27–28 min 80–100%, 28–32 min 100%).

[2] = Octanol-water distribution coefficient logD7.4, shake flask method; type: physicochemical; details: 1-octanol/PBS, pH 7.4, PBS/1-octanol, read-out: logD7.4 experimental
Protocol: The lipophilicity of the radioligands was determined by the distribution coefficient logD7.4. The respective radioligand (10 µL, about 25 kBq) was added to a mixture of PBS (500 µL) and 1-octanol (500 µL) and the emulsion was vortexed for 1 min. After centrifugation 3 × 100 µL were taken of each layer and analysed by a γ-counter. The partition coefficient was calculated as logD7.4=log(cpmoctanol/cpmPBS) . Data were expressed as mean values ± SD from three experiments.

[3] = Binding to human plasma proteins by gel filtration; type: in vitro ADME; details: 37 °C, read-out: Free fraction in plasma
Protocol: The binding of ^18F-labelled compounds to plasma proteins was determined using gel filtration columns(illustra™ MicroSpin™ G-50 Columns, GE Healthcare Life Sciences, Freiburg). An aliquot of the radiotracer (approx. 100 kBq) was added to 200 µL of saline, and 100 µL of human plasma, respectively. Both samples were incubated at 37 °C for 10 min. MicroSpin™ columns were prepared according to the user instruction. Then 25 µL of the incubated radiotracer were given onto the columns and the devices were centrifuged (2000 × g, 2 min). Eluate and solid phase were analysed in the γ-counter (Wallac Wizard). The percentage of unbound radioligand was calculated as %free=cpmsolidphase/cpmsolidphase+cpmeluate . The sample in saline was used as control.

MCF-7-Y1 tumour slices = assay: In-vitro autoradiography on MCF-7-Y1 tumour xenograft slices; type: binding, human; details: blocking with 1 µM and 10 µM BIBP3226
Protocol: MCF-7-Y1 tumour bearing mice were sacrificed by cervical dislocation under deep isoflurane anesthesia and tumours were excised and subsequently frozen in a hexane/dry ice bath (−70 °C). MCF-7-Y1 tumour slices (14 µm) were prepared on a cryostat microtome HM 500 O (Microm, Walldorf) and thaw-mounted on Histobond® adhesive glass slides (Marienfeld, Lauda-Königshofen).
For autoradiography studies slides were thawed and pre-incubated for 15 min in incubation buffer (50 mM TRIS HCl, pH 7.4, containing 120 mM NaCl, 5 mM MgCl2,) at room temperature. Thereafter, 800 µL of incubation buffer, containing 0.1 MBq of the respective radiotracer were pipetted on the slide and incubated at room temperature for 60 min. For displacement studies BIBP3226 (1 µM or 10 µM) was added to the incubation buffer before pipetting on the slides. Afterwards slides were washed by placing in ice cold incubation buffer (3 × 2 min) followed by short dipping in ice cold distilled water. Slides were carefully dried in a stream of warm air and finally placed on an autoradiography film (Fuji Imaging Plate BAS-IP SR 2025 E, Fujifilm, Düsseldorf) overnight prior to readout (25 µm resolution) on the autoradiograph (HD-CR-35 Bio, Raytest, Straubenhardt) and analysis with the software AIDA (Raytest). Additional sections were stained with hematoxylin and eosin (H&E) for comparison with the autoradiography images.

MCF-7-Y1 tumours = assay: Small animal PET in MCF-7-Y1 xenografted nude mice; type: in vivo, mouse; details: 45–60 min p.i., blocking by co-injection of BIBP3226 1 mg/kg
Protocol: For the NPY Y1R xenograft model, female NMRI nude mice (HsdCpb:NMRI-Foxn1^nu) were purchased from Envigo (Horst, The Netherlands) at the age of three weeks. Mice were kept in groups of four to five animals in individually ventilated cages in a twelve hours dark/light cycle with unlimited access to water and standard chow. At the age of nine to ten weeks one 17β-estradiol pellet per animal (0.72 mg per pellet, 3 mm diameter) with a 60-day release time (Innovative Research of America, Sarasota, FL, USA) was subcutaneously implanted on the back under isoflurane anesthesia. After three days, approximately 10^6 MCF-7-Y1 tumour cells (in 50 µL PBS) were mixed with Matrigel (50 µL, BD Biosciences, Heidelberg) and then injected subcutaneously at the back. Tumour diameters and weight of the animals were recorded five times a week. Imaging studies were performed four weeks after inoculation of the cells.
Small animal PET scans were performed on an Inveon™ microPET scanner (Siemens Healthcare, Erlangen) under isoflurane anesthesia (3%). Tumour bearing mice (26–35 g, n = 2–3 for each radioligand) were intravenously injected into the tail vein with the respective radiotracer (1.5–4.2 MBq in about 100 µL of saline) under isoflurane anesthesia (3–4%). Static images were acquired for 15 min starting 45 min p.i. of the radiotracer. For displacement studies, the same mice were co-injected with the radiotracer ([^18F]12 and [^18F]13 only) and BIBP3226 (1 mg/kg). Images were corrected for decay and attenuation and MAP (iterative maximum a posteriori) images were reconstructed using the built-in software of the PET scanner. Evaluation of the MAP images was conducted using the software PMOD (version 3.6, PMOD Technologies LLC, Zürich). Regions of interests (ROIs) were drawn and radioactivity concentration within these regions was obtained from the mean values and calculated as percentage of the total injected dose per gram tissue (% ID/g).

[4] = Radiotracer stability in human serum by radio-HPLC; type: in vitro ADME; details: 37 °C
Protocol: The stability of ^18F-labelled compounds was determined in human serum. An aliquot of the radiotracer (5–10 MBq) was added to 200 µL human serum and incubated at 37 °C. Aliquots of 15 µL were taken after 5, 10, 15, 30, 45, 60, 120 and 180 min and quenched in 100 µL of 10% aqueous TFA. The samples were centrifuged (20000 × g, 2 min), and the supernatants were analysed by radio-HPLC (Chromolith RP-18e, 100 × 4.6 mm, 4 mL/min, 0–1 min 25% CH3CN (0.1% TFA) in water (0.1% TFA), 1–6 min 25–60%, 6–7 min 60–100%, 7–8 min 100%).

SMILES: N/C(=N/C(=O)NCc1cn([C@@H]2OC(C[18F])[C@@H](O)C(O)C2O)nn1)NCCC[C@@H](NC(=O)C(c1ccccc1)c1ccccc1)C(=O)NCc1ccc(O)cc1 (stereo partly drawn) [[^18F]11, (2R)‐5‐{[(1Z)‐Amino({[({1‐[(2R,5S)‐6‐([^18F]fluoromethyl)‐3,4,5‐trihydroxyoxan‐2‐yl]‐1H‐1,2,3‐triazol‐4‐yl}methyl)carbamoyl]imino})methyl]amino}‐2‐(2,2‐diphenylacetamido)‐N‐[(4‐hydroxyphenyl)-methyl]pentanamide]
- stability in the blood in vivo (in words) [1]: higher stability in the blood in vivo
- intact radioligand in blood samples ([1]; mouse): about 50%
- logD [2]: 0.78 ± 0.005
- fraction unbound at 10 min [3]: 0.42
- specific binding to MCF-7-Y1 tumour slices (autoradiography) (MCF-7-Y1 tumour slices): very low specific binding
- tumour visualisation / specific tumour accumulation in PET (MCF-7-Y1 tumours): visualision of the tumour with the fluoroglycosylated radiotracer [^18F]11 failed
- Stability over 3 h in human serum [4]: >99%

SMILES: N/C(=N/C(=O)NCc1cn(CCOCCOCCOCC[18F])nn1)NCCC[C@@H](NC(=O)C(c1ccccc1)c1ccccc1)C(=O)NCc1ccc(O)cc1 [[^18F]13, (2R)‐5‐{[(1Z)‐Amino[({[1‐(2‐{2‐[2‐(2‐[^18F]fluoroethoxy)ethoxy]ethoxy}ethyl)‐1H‐1,2,3‐triazol‐4‐yl]methyl}carbamoyl)imino]methyl]amino}‐2‐(2,2‐diphenylacetamido)‐N‐[(4‐hydroxyphenyl)-methyl]pentanamide]
- radiometabolites in the blood ([1]; mouse): > 90%
- stability in the blood in vivo (in words) [1]: underwent rapid degradation in the blood
- intact radioligand in blood samples ([1]; mouse): less than 5%
- logD [2]: 1.49 ± 0.003
- fraction unbound at 10 min [3]: 0.37
- specific binding to MCF-7-Y1 tumour slices (autoradiography) (MCF-7-Y1 tumour slices): marked specific binding
- tumour visualisation / specific tumour accumulation in PET (MCF-7-Y1 tumours): displaceable and thus specific Y1R-mediated tumour acculuation in vivo; also recorded: enhanced and specific tumour uptake
- Stability over 3 h in human serum [4]: >99%
